This note sets out measurements from patent US8846666B2, “Oxathiazine derivatives which are substituted with benzyl or heteromethylene groups, method for producing them, their use as medicine and drug containing said derivatives and the use thereof” (Sanofi, priority 2011, dated 2014).

The target of the experiment is human 11β-HSD1 microsome fraction (Homo sapiens, UniProt P28845). The experiment in a line: Enzymatic 11Beta-HSD1 test (SPA-based detection). Format: biochemical. The note with it: [1,2-3H]-cortisone, NADPH, 37° C. for 1 hour. On the procedure:
Enzymatic 11Beta-HSD1 Test:
To measure the activity of the compounds, an SPA-based detection method (Solly et al. 2005) was employed. First of all, 20 μl of the human 11β-HSD1 microsome fraction (0.2 μg of protein), prepared in 50 mM HEPES, 0.1% BSA (w/v), were applied to a plate with 384 wells. The test compounds (0.09 μl) were applied to the assay plate in 100% DMSO. The reaction was started by addition of 20 μl of [1,2-^3H]-cortisone (0.1 μCi/[…]) in assay buffer comprising 25 mM HEPES, 100 mM KCl, 5 mM NaCl, 2 mM MgCl2 and 0.25 mM NADPH. The plate was agitated at 37° C. for 1 hour. At the same time, a stop solution comprising 20 mg/ml SPA-PVT beads, 1.6 mg/ml monoclonal cortisol antibody and 0.01 mM SSR110887 (inhibitor from the Biovitrium patent) in 50 mM HEPES, 1 M NaCl and 1 M KCl was stirred at room temperature. To stop the reaction, 25 μl of the stop solution were added to each well. The plate was agitated gently at room temperature for 1 further hour and then centrifuged at 500 gav for 1 min, in order that the SPA beads could settle out. The plate was then read in a Wallac-1450-Microbeta unit with a standard SPA program (counting time 1 min/well). The comparative compound was glycyrrhetinic acid.
Protein and radioactive substrate were dispensed with a Biomek FX unit (Beckman Coulter) for handling liquids. The test compounds were added with a Cybi-Well equipped with a 90 nl pin tool (CyBio).
Lit.: Solly S, Mundt S S, Zokian H J, Juy-Fang Ding G, Hermanowski-Vosatka A, Strulovici B and Zheng W. High-throughput screening of 11β-Hydroxysteroid dehydrogenase type 1 in scintillation proximity format. Assay Drug Dev Technol 2005; 3:377-384.

Chain of human 11β-HSD1 microsome fraction (P28845 whole entry): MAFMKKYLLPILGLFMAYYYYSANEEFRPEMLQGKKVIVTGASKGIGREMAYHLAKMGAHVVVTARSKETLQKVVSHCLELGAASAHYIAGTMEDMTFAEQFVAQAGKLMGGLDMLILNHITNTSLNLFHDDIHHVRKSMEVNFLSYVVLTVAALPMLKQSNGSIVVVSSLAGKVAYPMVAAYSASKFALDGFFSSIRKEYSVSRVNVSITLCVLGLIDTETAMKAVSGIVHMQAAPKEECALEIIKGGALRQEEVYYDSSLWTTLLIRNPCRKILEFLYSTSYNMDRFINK

`CC1(C)OC(N[C@@H](CCO)c2ccccc2)=NS(=O)(=O)C1Cc1ccc(Cl)cc1` (stereo partly drawn) [Example 1, (S)-3-[5-(4-Chlorobenzyl)-6,6-dimethyl-4,4-dioxo-5,6-dihydro-4H-4lambda6-[1,4,3]oxathiazin-2-ylamino]-3-phenyl-propan-1-ol]: 5 nM corresponded to half-maximal inhibition (IC50).

As to `CC1(C)OC(N[C@@H](CCO)c2ccccc2)=NS(=O)(=O)C1Cc1ccccc1` (stereo partly drawn) [Example 2, (S)-3-(5-Benzyl-6,6-dimethyl-4,4-dioxo-5,6-dihydro-4H-4lambda6-[1,4,3]oxathiazin-2-ylamino)-3-phenyl-propan-1-ol], the 50% inhibitory concentration (IC50) (commonly the point on the concentration scale where inhibition reaches its midpoint) was determined as 7 nM.

`C[C@H](NC1=NS(=O)(=O)C(C)(Cc2ccc(Br)cc2)C(C)(C)O1)c1ccccc1F` (stereo partly drawn) [Example 3, [5-(4-Bromobenzyl)-5,6,6-trimethyl-4,4-dioxo-5,6-dihydro-4H-4lambda6-[1,4,3]oxathiazin-2-yl]-[(S)-1-(2-fluorophenyl)-ethyl]-amine] showed an IC50 of 4 nM.

`CC1(C)OC(N[C@@H](CCO)c2ccccc2F)=NS(=O)(=O)C1(C)Cc1ccc(Br)cc1` (stereo partly drawn) [Example 4, (S)-3-[5-(4-Bromobenzyl)-5,6,6-trimethyl-4,4-dioxo-5,6-dihydro-4H-4lambda6-[1,4,3]oxathiazin-2-ylamino]-3-(2-fluorophenyl)-propan-1-ol] came in with an IC50 of 3 nM.

With `C[C@H](NC1=NS(=O)(=O)C(C)(Cc2ccccc2)C(C)(C)O1)c1ccccc1F` (stereo partly drawn) [Example 5, (5-Benzyl-5,6,6-trimethyl-4,4-dioxo-5,6-dihydro-4H-4lambda6-[1,4,3]oxathiazin-2-yl)-[(S)-1-(2-fluorophenyl)-ethyl]-amine], the IC50 was 5 nM.

For the compound `CC1(C)OC(N[C@@H](CCO)c2ccccc2F)=NS(=O)(=O)C1(C)Cc1ccc(-c2ccccn2)cc1` (stereo partly drawn) [Example 6, (S)-3-(2-Fluorophenyl)-3-[5,6,6-trimethyl-4,4-dioxo-5-(4-pyridin-2-yl-benzyl)-5,6-dihydro-4H-4lambda6-[1,4,3]oxathiazin-2-ylamino]-propan-1-ol], the 50% inhibitory concentration (IC50) came out at 6 nM.

`CC1(C)OC(N[C@@H](CCO)c2ccccc2F)=NS(=O)(=O)C1(C)Cc1ccc(-c2ccc(C(F)(F)F)cn2)cc1` (stereo partly drawn) [Example 7, (S)-3-(2-Fluorophenyl)-3-{5,6,6-trimethyl-4,4-dioxo-5-[4-(5-trifluoromethyl-pyridin-2-yl)-benzyl]-5,6-dihydro-4H-4lambda6-[1,4,3]oxathiazin-2-ylamino}-propan-1-ol] returned a half-maximal inhibitory concentration (IC50) of 12 nM.

With `CC1(C)OC(N[C@@H](CCO)c2ccccc2F)=NS(=O)(=O)C1Cc1ccc(-c2ccc(C(F)(F)F)cn2)cc1` (stereo partly drawn) [Example 8, (S)-3-{6,6-Dimethyl-4,4-dioxo-5-[4-(5-trifluoromethyl-pyridin-2-yl)-benzyl]-5,6-dihydro-4H-4lambda6-[1,4,3]oxathiazin-2-ylamino}-3-(2-fluoro-phenyl)-propan-1-ol], inhibition was half-maximal at 7 nM (IC50).

`CC1(C)OC(N[C@@H](CCO)c2ccccc2F)=NS(=O)(=O)C1Cc1cccc(-c2ccccc2)c1` (stereo partly drawn) [Example 9, (S)-3-(5-Biphenyl-3-ylmethyl-6,6-dimethyl-4,4-dioxo-5,6-dihydro-4H-4lambda6-[1,4,3]oxathiazin-2-ylamino)-3-(2-fluoro-phenyl)-propan-1-ol] came in with an IC50 of 5 nM.

For the compound `CC1(C)OC(N[C@@H](CCO)c2ccccc2F)=NS(=O)(=O)C1Cc1ccc(-c2ccccc2)cc1` (stereo partly drawn) [Example 10, (S)-3-(5-Biphenyl-4-ylmethyl-6,6-dimethyl-4,4-dioxo-5,6-dihydro-4H-4lambda6-[1,4,3]oxathiazin-2-ylamino)-3-(2-fluoro-phenyl)-propan-1-ol], it took 4 nM to reach half-maximal inhibition (IC50).

As to `CC1(C)OC(N[C@@H](CCO)c2ccccc2Cl)=NS(=O)(=O)C1Cc1ccccc1` (stereo partly drawn) [Example 11, (S)-3-(5-Benzyl-6,6-dimethyl-4,4-dioxo-5,6-dihydro-4H-4lambda6-[1,4,3]oxathiazin-2-ylamino)-3-(2-chlorophenyl)-propan-1-ol], the midpoint of inhibition, the IC50, lay at 8 nM.

`CC1(C)OC(N[C@@H](CCO)c2ccccc2F)=NS(=O)(=O)C1Cc1ccccc1` (stereo partly drawn) [Example 12, (S)-3-(5-Benzyl-6,6-dimethyl-4,4-dioxo-5,6-dihydro-4H-4lambda6-[1,4,3]oxathiazin-2-ylamino)-3-(2-fluorophenyl)-propan-1-ol] gave an IC50 of 4 nM.

Turning to `CC1(C)OC(N[C@@H](CCO)c2cccc(F)c2Cl)=NS(=O)(=O)C1Cc1ccccc1` (stereo partly drawn) [Example 13, (S)-3-(5-Benzyl-6,6-dimethyl-4,4-dioxo-5,6-dihydro-4H-4lambda6-[1,4,3]oxathiazin-2-ylamino)-3-(2-chloro-3-fluorophenyl)-propan-1-ol], the IC50 worked out at 6 nM.

Compound `CC1(C)OC(N[C@@H](CCO)c2cc(Cl)ccc2F)=NS(=O)(=O)C1Cc1ccccc1` (stereo partly drawn) [Example 14, (S)-3-(5-Benzyl-6,6-dimethyl-4,4-dioxo-5,6-dihydro-4H-4lambda6-[1,4,3]oxathiazin-2-ylamino)-3-(5-chloro-2-fluorophenyl)-propan-1-ol] came in with a half-maximal inhibitory concentration (IC50) of 4 nM.

Take `CC1(C)OC(N[C@@H](CCO)c2ccc(Cl)cc2)=NS(=O)(=O)C1Cc1ccccc1` (stereo partly drawn) [Example 15, (S)-3-(5-Benzyl-6,6-dimethyl-4,4-dioxo-5,6-dihydro-4H-4lambda6-[1,4,3]oxathiazin-2-ylamino)-3-(4-chlorophenyl)-propan-1-ol]: it took 10 nM to reach half-maximal inhibition (IC50).

Take `CC1(C)OC(N[C@@H](CCO)c2cccc(Cl)c2)=NS(=O)(=O)C1Cc1ccccc1` (stereo partly drawn) [Example 16, (S)-3-(5-Benzyl-6,6-dimethyl-4,4-dioxo-5,6-dihydro-4H-4lambda6-[1,4,3]oxathiazin-2-ylamino)-3-(3-chlorophenyl)-propan-1-ol]: 6 nM corresponded to half-maximal inhibition (IC50).

On to `CC1(C)OC(N[C@@H](CCO)c2cc(F)ccc2F)=NS(=O)(=O)C1Cc1ccccc1` (stereo partly drawn) [Example 17, (S)-3-(5-Benzyl-6,6-dimethyl-4,4-dioxo-5,6-dihydro-4H-4lambda6-[1,4,3]oxathiazin-2-ylamino)-3-(2,5-difluorophenyl)-propan-1-ol], for which the 50% inhibitory concentration (IC50) is 4 nM.

Regarding `CC1(C)OC(N[C@@H](CCO)c2ccc(F)cc2F)=NS(=O)(=O)C1Cc1ccccc1` (stereo partly drawn) [Example 18, (S)-3-(5-Benzyl-6,6-dimethyl-4,4-dioxo-5,6-dihydro-4H-4lambda6-[1,4,3]oxathiazin-2-ylamino)-3-(2,4-difluorophenyl)-propan-1-ol], the midpoint of inhibition, the IC50, lay at 5 nM.

`Cc1ccc(F)cc1[C@H](CCO)NC1=NS(=O)(=O)C(Cc2ccccc2)C(C)(C)O1` (stereo partly drawn) [Example 19, (S)-3-(5-Benzyl-6,6-dimethyl-4,4-dioxo-5,6-dihydro-4H-4lambda6-[1,4,3]oxathiazin-2-ylamino)-3-(5-fluoro-2-methyl-phenyl)-propan-1-ol] registered an IC50 of 4 nM.

With `CC1(C)OC(NC23CCC(F)(CC2)CC3)=NS(=O)(=O)C1Cc1ccccc1` (stereo not drawn) [Example 20, (5-Benzyl-6,6-dimethyl-4,4-dioxo-5,6-dihydro-4H-4lambda6-[1,4,3]oxathiazin-2-yl)-(4-fluoro-bicyclo[2.2.2]oct-1-yl)-amine], the half-maximal inhibitory concentration (IC50) was found to be 5 nM.

Regarding `CC1(C)OC(N[C@@H](CCO)c2ccccc2F)=NS(=O)(=O)C1Cc1cccc2ccccc12` (stereo partly drawn) [Example 21, (S)-3-(6,6-Dimethyl-5-naphthalen-1-ylmethyl-4,4-dioxo-5,6-dihydro-4H-4lambda6-[1,4,3]oxathiazin-2-ylamino)-3-(2-fluorophenyl)-propan-1-ol], the IC50 is 5 nM.
